“And” between values parts separate entries of the source, which are not always exact repeats. Equal entries are not always repeated.
Legend:
[1] = UV-vis absorption and emission measurements in aqueous buffer; assay type: physicochemical; conditions: for molar extinction coefficient: PBS, glutathione 2 mM, PEG-400 40% v/v
Protocol: (§1) UV-vis absorption and emission measurements. FCP-1 stock solution in DMSO (5 mM) was prepared, aliquoted and stored at […]. For each spectroscopic measurement, a fresh aliquot was diluted to 500 μM by DMSO and further diluted with PBS containing 2 mM GSH/PEG-400 mixture (3:2, v/v) to prepare the sensing solution with 5 μM of FCP-1. The sensing solution was pre-incubated in a water bath at 37° C., and then [Cu(CH3CN)](PF6) in MeCN or other metal ions in H2O was added. The solution mixture was kept at 37° C. and taken out for UV-vis absorption or emission spectroscopic measurements in quartz cuvette at predetermined time intervals. Emission spectra were corrected using coumarin 153 as secondary emission standard (4). Photoluminescence quantum yield (PLQY) was determined using fluorescein in 0.1 M NaOH solution (0.95; λex=496 nm). FRET efficiency from the fluorescein moiety to rhodamine moiety of FCP-1 was estimated by [1−(PLQY of FCP-1/PLQY of FL-TPA)].
FCP-1 in PBS buffer containing glutathione (2 mM) and PEG-400 (40%, v/v) was evaluated. […] The first two absorption maxima corresponded to the absorption of the fluorescein moiety, as similar absorption maxima at 460 and 489 nm were found in the absorption spectra of FL-TPA (FIG. 4), whereas the lowest energy absorption at 552 nm originated from the rhodamine moiety (FIG. 4). […] Together with the significant contribution of the lower-energy fluorescence from the excitation at 450-500 nm, which is in the region of FL-TPA absorption (FIG. 6), the data support the occurrence of FRET from the fluorescein donor to the rhodamine acceptor. Using FL-TPA as a reference FRET donor compound (FIG. 7) with assumption that quenching of donor fluorescence originated only from the FRET process, the FRET efficiency in the FCP-1 cassette is estimated to be 84%.

[2] = Ratiometric fluorescence response (F526/F576) to Cu(I) in aqueous buffer
Protocol: as §1
The ratiometric fluorescence change of FCP-1 at 526 and 576 nm (F526/F576) was rapid and reached saturation after ca. 30 min in the presence of a two-fold excess of Cu(I) (10 μM).

[3] = tested on: labile Cu(I) pools in HeLa cells; experiment: Ratiometric confocal fluorescence imaging of labile Cu(I) in HeLa cells under redox stress; assay type: cell-based, Human; conditions: FCP-1 5 μM
Protocol: Confocal fluorescence microscopy images of HeLa cells pretreated with (A) solvent control, CuCl2 (200 or 300 μM), or BCS (100 μM) in complete medium for 18 h, or (B) solvent control, ascorbate (1 mM), or BSO (1 mM) in complete medium for 4 h. The cells were then washed with PBS, incubated with FCP-1 (5 μM) in DPBS for 45 min and imaged with λex=458 nm. The bar charts show average cellular ratiometric FCP-1 emission, Fgreen/Forange, determined from experiments performed in triplicate. (C) Total cellular ^63Cu levels were determined by ICP-MS experiments (with normalization of different cell numbers by total cellular ^31P level). […]
Confocal fluorescence microscopy imaging. For confocal fluorescence imaging experiments of HEK293T, MEF Ctr1^+/+ and Ctr1^−/− and HeLa cells, the cells were plated on 8-well Lab Tek borosilicate chambered coverglass slides (Nunc), and allowed to grow to ca. 60% confluency before performing the cell imaging experiments. […] For quantification, a threshold value was set as background and the average intensity of the whole image was measured by ImageJ. […]
In view of the oxidation state-specificity of FCP-1 toward Cu(I), the impact of cellular redox status on labile Cu(I) pools was examined First, the ability of FCP-1 to detect changes in labile Cu(I) levels in HeLa cells with CuCl2 and BCS treatments was evaluated (FIG. 16A). […]

[4] = FCP-1 5 μM, Cu(I) 10 μM, over time, λex 458 nm

With `CC[N+](CC)=c1ccc2c(-c3ccccc3C(=O)O)c3ccc(N4CCN(Cc5cccc(CN(Cc6ccccn6)Cc6cccc(COc7ccc8c(-c9ccccc9C(=O)OC)c9ccc(=O)cc-9oc8c7)n6)n5)CC4)cc3oc-2c1` [FCP-1] the FRET efficiency ([1]; FL-TPA as reference FRET donor, 1−(PLQY of FCP-1/PLQY of FL-TPA)) was 84%, the absorption maxima ([1]; PBS buffer containing glutathione (2 mM) and PEG-400 (40%, v/v)) was 465 nm and 493 nm and 552 nm and the molar extinction coefficient ([1]; at 465 nm) was 20,000 M^−1 cm^−1. For the same compound, the molar extinction coefficient ([1]; at 493 nm) was 22,100 M^−1 cm^−1, the molar extinction coefficient ([1]; at 552 nm) was 40,000 M^−1 cm^−1 and the emission wavelength ([1]; photoexcitation at 458 nm) was 526 nm and 576 nm. For the same compound, the “F526/F576 ratio with Cu(I) at different GSH concentrations” value ([2]; FCP-1 5 μM, Cu(I) 10 μM, 15 min, PBS with 40 vol % PEG-400) was “higher F526/F576 ratios at lower GSH concentrations”, the “fluorescein emission at 526 nm upon addition of Cu(I)” value [2, 4] was “increase in fluorescein emission at 526 nm” and the “rhodamine fluorescence at 576 nm upon addition of Cu(I)” value [2, 4] was “drop in rhodamine fluorescence at 576 nm”. For the same compound, the “total fluorescence at higher probe concentrations” value ([2]; aqueous buffer, λex 458 nm (FIG. 8)) was “less fluorescent at higher concentrations”, the “time to saturation of ratiometric fluorescence change F526/F576” value ([2]; two-fold excess of Cu(I) (10 μM)) was “ca. 30 min” and the “Fgreen/Forange ratio in BSO-treated cells compared to control” value ([3]; BSO 1 mM 4 h) was “higher”. For the same compound, the “Fgreen/Forange ratio in ascorbate-treated cells compared to control” value ([3]; ascorbate 1 mM 4 h) was “statistically significant increase”.

Source: patent US12241902B2, “Probes for detection of copper” (The Regents of the University of California, priority 2019, dated 2025)
